Measurements published in patent publication US20240000749A1, “SOLID FORMULATION” (Janssen Pharmaceuticals, Inc., priority 2020, published 2024).
Values after ≈ are worked out from the molar mass of the structure shown. Read-outs that look alike come from different tables or passages of the source.

Experiments:
Assay type in all cases: physicochemical
[1] = Approximate solubility screening in organic solvents at ambient temperature; details: organic solvent or mixture, thermodynamic from solid, read-out: S (solubility)
Description: To screen appropriate solvent for spray drying, approximate solubility of starting material was estimated in different organic solvents at ambient temperature.

[2] = Stability of API, SD2 powder and 10 mg SD2 tablets in HDPE bottles; set-up: key to Appearance: “T1”: white powder; “T2”: white or off white round tablet; details: Table 8
Description: Stability of the API, SD2 as well as the tablet (10 mg strength) comprising SD2 was tested by placing the tablets in HDPE bottles under stressed conditions as described in column 2 of Table 7.

[3] = Equilibrium solubility determined by UPLC
[4] = Stability of API, SD1 powder and 10 mg SD1 tablets in HDPE bottles; set-up: key to Appearance: “T1”: white powder; “T2”: white or off white round tablet; details: Table 6
Description: Stability of the API, SD1 powder as well as the tablets (10 mg strength) comprising SD1 was tested by placing the tablets in High-density polyethylene (HDPE) bottles under stressed conditions as described in column 2 of Table 6.

[5] = In vitro 2-phase (SGF/FaSSIF) miniaturized dissolution of solid dispersion films; details: SGF-FaSSIF, 37° C.
Description: In vitro, 2-phase (SGF/FaSSIF) miniaturized dissolution was performed, where the amount of dissolved API was monitored as a function of time. Before starting the dissolution assay, the films were stored at room temperature, for one day for the first screen and for 3 days for the second screen. By doing so, most of the residual solvent was evaporated. Actual dissolution experiments were performed in 96 1 mL glass vials using the Hamilton STAR plus liquid handling platform for both sampling and sample preparation. Before addition to the films, the media was preheated to 37° C. 300 μL of preheated SGF (37° C., pH 1.3) was then added to the solid dispersions. After 15 minutes of incubation in SGF, 600 μL of preheated concentrated FaSSIF (37° C., pH 10.5) was added to the samples. The addition of this concentrated FaSSIF to SGF results in a medium with a similar composition to the typical FaSSIF medium used in 1-phase dissolution studies. At predetermined time intervals (11, 24, 34, 49, 79, 139 minutes), aliquots were withdrawn from the dissolution media and filtered through a 0.45 μm GHP membrane filter. Subsequently, the filtered solutions were quantitatively diluted with N-methyl pyrrolidone (NMP) to prevent possible precipitation. The amount of dissolved API was determined by UPLC/UV-Vis analysis. Experiments were performed in duplicate for each formulation per screen. […]

## COc1cc(NC(C(=O)c2c[nH]c3ccc(OC(F)(F)F)cc23)c2ccc(Cl)cc2OC)cc(S(C)(=O)=O)c1 (centres unmarked) [API]
[1]; Acetone/EtOH (1/1, v/v)
  solubility: > 100 mg/mL
[1]; Acetone/EtOH (2/1, v/v)
  solubility: > 100 mg/mL
[1]; Acetone/H2O (9/1, v/v)
  solubility: > 100 mg/mL
[1]; Acetone/MeOH (2/1, v/v)
  solubility: > 100 mg/mL
[1]; EtOH/H2O (9/1, v/v), HPMC E5 added into co-solvent system directly
  solubility: 10 to 12.5 mg/mL (≈ 17.2 to 21.4 mM)
[1]; MeOH
  solubility: 42 mg/mL (≈ 72 mM)
[1]; MeOH/DCM (1/1, v/v)
  solubility: > 100 mg/mL
[2]; 40° C./75% RH (closed), 1 M
  Appearance: T1
  Purity (%): 98.96%
  Total impurity (%): 1.04%
[2]; 40° C./75% RH (closed), 2 M
  Appearance: T1
  Purity (%): 98.94%
  Total impurity (%): 1.05%
[2]; 40° C./75% RH (closed), 2 W
  Appearance: T1
  Purity (%): 98.95%
  Total impurity (%): 1.05%
[2]; 40° C./75% RH (closed), 3 M
  Appearance: T1
  Purity (%): 98.95%
  Total impurity (%): 1.05%
[2]; 40° C./75% RH (open), 1 M
  Appearance: T1
  Purity (%): 98.94%
  Total impurity (%): 1.04%
[2]; 40° C./75% RH (open), 2 M
  Appearance: T1
  Purity (%): 98.96%
  Total impurity (%): 1.04%
[2]; 40° C./75% RH (open), 2 W
  Appearance: T1
  Purity (%): 98.95%
  Total impurity (%): 1.06%
[2]; 40° C./75% RH (open), 3 M
  Appearance: T1
  Purity (%): 98.96%
  Total impurity (%): 1.05%
[3]; MeOH/dichloromethane (1/1, organic solvent or mixture, thermodynamic from solid), MeOH/dichloromethane (DCM) (1/1, v/v)
  solubility thermodynamic: 317 mg/mL (≈ 544 mM)
[3]; organic solvent or mixture, thermodynamic from solid, MeOH
  solubility thermodynamic: 42 mg/mL (≈ 72 mM)
[4]; 40° C./75% RH (closed), 1 M
  Appearance: T1
  Purity (%): 98.96%
  Total impurity (%): 1.04%
[4]; 40° C./75% RH (closed), 2 M
  Appearance: T1
  Purity (%): 98.94%
  Total impurity (%): 1.06%
[4]; 40° C./75% RH (closed), 2 W
  Appearance: T1
  Purity (%): 98.95%
  Total impurity (%): 1.05%
[4]; 40° C./75% RH (closed), 3 M
  Appearance: T1
  Purity (%): 98.95%
  Total impurity (%): 1.05%
[4]; 40° C./75% RH (open), 1 M
  Appearance: T1
  Purity (%): 98.94%
  Total impurity (%): 1.06%
[4]; 40° C./75% RH (open), 2 M
  Appearance: T1
  Purity (%): 98.96%
  Total impurity (%): 1.04%
[4]; 40° C./75% RH (open), 2 W
  Appearance: T1
  Purity (%): 98.95%
  Total impurity (%): 1.05%
[4]; 40° C./75% RH (open), 3 M
  Appearance: T1
  Purity (%): 98.96%
  Total impurity (%): 1.04%
[5]; first screen
  final release of the total amount of API present in the films: approximately 9%
[5]; second screen
  final release of the total amount of API present in the films: approximately 9%
